Data: ChEMBL document CHEMBL1201862, “PubChem BioAssay data set” (2004)
Values joined by “and” are separate entries in the source; they are usually repeats but may differ in a detail not shown here. Identical values can stand only once.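 Compound exposure: 48 hours, 5 concentrations, 96-well plates. GI50 is the concentration that inhibits growth by half.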 Active and inactive are the calls of the source. No stated cut-off is given here; in the data, active = GI50 up to about 1.1 µM and inactive = higher.

What was measured:
Test in all cases: inhibition of tumour cell growth, NCI panel, 48 h
TK-10 = system: TK-10
NCI/ADR-RES = system: NCI/ADR-RES
SF-539 = system: SF-539
A498 = system: A498
SK-MEL-2 = system: SK-MEL-2
HCT-116 = system: HCT-116
MDA-MB-435 = system: MDA-MB-435
OVCAR-3 = system: OVCAR-3
SNB-75 = system: SNB-75
RXF 393 = system: RXF 393
Hs-578T = system: Hs-578T
COLO 205 = system: COLO 205
DU-145 = system: DU-145
SW-620 = system: SW-620
NCI-H460 = system: NCI-H460
K562 = system: K562
MOLT-4 = system: MOLT-4
HOP-62 = system: HOP-62
HCT-15 = system: HCT-15
NCI-H23 = system: NCI-H23
UACC-62 = system: UACC-62
OVCAR-8 = system: OVCAR-8
UACC-257 = system: UACC-257
NCI-H226 = system: NCI-H226
CAKI-1 = system: CAKI-1
MCF7 = system: MCF7
ACHN = system: ACHN
SK-MEL-28 = system: SK-MEL-28
CCRF-CEM = system: CCRF-CEM
Malme-3M = system: Malme-3M
KM12 = system: KM12
SF-295 = system: SF-295
HT-29 = system: HT-29
MDA-MB-231 = system: MDA-MB-231
SF-268 = system: SF-268
RPMI-8226 = system: RPMI-8226
M14 = system: M14
SK-OV-3 = system: SK-OV-3
SK-MEL-5 = system: SK-MEL-5
786-0 = system: 786-0
PC-3 = system: PC-3
BT-549 = system: BT-549
HCC 2998 = system: HCC 2998
HL-60 = system: HL-60
SN12C = system: SN12C
A549 = system: A549
OVCAR-5 = system: OVCAR-5
U-251 = system: U-251
OVCAR-4 = system: OVCAR-4
NCI-H522 = system: NCI-H522
SNB-19 = system: SNB-19
MDA-N = system: MDA-N
T47D = system: T47D
IGROV-1 = system: IGROV-1
EKVX = system: EKVX
LOX IMVI = system: LOX IMVI
HOP-92 = system: HOP-92
SR = system: SR
UO-31 = system: UO-31
LXFL 529 = system: LXFL 529

For `CCNC(=S)N/N=C(/C)c1cccc(/C(C)=N\NC(=S)NCC)n1`, the GI50 (TK-10) was 0.771 µM (active), the GI50 (NCI/ADR-RES) was 0.748 µM (active) and the GI50 (SF-539) was 1.27 µM (inactive). The GI50 (A498) was 7.52 µM (inactive), the GI50 (SK-MEL-2) was 3.9 µM (inactive) and the GI50 (HCT-116) was 0.367 µM (active). For the same compound, the GI50 (MDA-MB-435) was 2.82 µM (inactive), the GI50 (OVCAR-3) was 0.366 µM (active) and the GI50 (SNB-75) was 14.9 µM (inactive). For the same compound, the GI50 (RXF 393) was 3.44 µM (inactive), the GI50 (Hs-578T) was 13.8 µM (inactive) and the GI50 (COLO 205) was 1.08 µM (active). The GI50 (DU-145) was 1.35 µM (inactive), the GI50 (SW-620) was 0.486 µM (active) and the GI50 (NCI-H460) was 0.31 µM (active). The GI50 (K562) was 1.13 µM (inactive), the GI50 (MOLT-4) was 365 nM (active) and the GI50 (HOP-62) was 1.11 µM (active). The GI50 (HCT-15) was 0.493 µM, the GI50 (NCI-H23) was 4.06 µM (inactive) and the GI50 (UACC-62) was 1.09 µM (active). For the same compound, the GI50 (OVCAR-8) was 0.345 µM (active), the GI50 (UACC-257) was 4.16 µM (inactive) and the GI50 (NCI-H226) was 0.333 µM (active). For the same compound, the GI50 (CAKI-1) was 1.23 µM (inactive), the GI50 (MCF7) was 0.689 µM (active) and the GI50 (ACHN) was 0.562 µM (active). For the same compound, the GI50 (SK-MEL-28) was 2.38 µM (inactive), the GI50 (CCRF-CEM) was 303 nM (active) and the GI50 (Malme-3M) was 2.44 µM (inactive). The GI50 (KM12) was 0.593 µM (active), the GI50 (SF-295) was 0.488 µM (active) and the GI50 (HT-29) was 0.315 µM (active). For the same compound, the GI50 (MDA-MB-231) was 2.32 µM (inactive), the GI50 (SF-268) was 0.59 µM (active) and the GI50 (RPMI-8226) was 847 nM (active). The GI50 (M14) was 1.2 µM (inactive), the GI50 (SK-OV-3) was 2.63 µM (inactive) and the GI50 (SK-MEL-5) was 0.774 µM (active). For the same compound, the GI50 (786-0) was 1.5 µM (inactive), the GI50 (PC-3) was 0.614 µM (active) and the GI50 (BT-549) was 10.4 µM (inactive). For the same compound, the GI50 (HCC 2998) was 3.56 µM (inactive), the GI50 (HL-60) was 570 nM (active) and the GI50 (SN12C) was 1.46 µM (inactive). The GI50 (A549) was 0.719 µM (active), the GI50 (OVCAR-5) was 0.873 µM (active) and the GI50 (U-251) was 0.553 µM (active). The GI50 (OVCAR-4) was 2.14 µM (inactive), the GI50 (NCI-H522) was 1.15 µM (inactive) and the GI50 (SNB-19) was 5.48 µM (inactive). The GI50 (MDA-N) was 1.23 µM (inactive), the GI50 (T47D) was 2.72 µM (inactive) and the GI50 (IGROV-1) was 1.24 µM (inactive). For the same compound, the GI50 (EKVX) was 1.11 µM (active), the GI50 (LOX IMVI) was 373 nM (active) and the GI50 (HOP-92) was 1.69 µM (inactive). For the same compound, the GI50 (SR) was 0.184 µM (active) and the GI50 (UO-31) was 0.968 µM (active).

With `N#Cc1c(-c2ccccc2)cc(-c2ccccc2)n(C2OC(CO)C(O)C(O)C2O)c1=O` (stereo not drawn) the GI50 (K562) was 44.2 µM (inactive) and 49.7 µM (inactive), the GI50 (MOLT-4) was 41 µM (inactive) and 38.2 µM (inactive) and the GI50 (UACC-62) was 86.5 µM (inactive) and 84.3 µM (inactive). The GI50 (CCRF-CEM) was 59.8 µM (inactive) and 47.1 µM (inactive), the GI50 (RPMI-8226) was 69.7 µM (inactive) and 84.3 µM (inactive) and the GI50 (HL-60) was 43.9 µM (inactive) and 44.2 µM (inactive). The GI50 (LXFL 529) was 68.4 µM (inactive) and 97.5 µM (inactive), the GI50 (LOX IMVI) was 61.9 µM (inactive) and 63.1 µM (inactive) and the GI50 (SR) was 47.3 µM (inactive).
